Measurements from patent publication US20070082856A1, “Combination therapy comprising the use of et-743 and doxorubicin for treating cancer” (Pharma Mar, S.A.U., priority 2003, published 2007).

Tests used:
[1] = Phase I clinical trial (Example 1): pharmacokinetics of both drugs for the 2 sequences; assay type: in vivo, human; settings: for influence of order of administration on pharmacokinetics: ET-743 and Doxo, sequence A versus B; for comparison of the plasma disposition in patients receiving both sequences: ET-743 and doxorubicin, sequences A and B, cycle 1 and cycle 2
Method: Pharmacokinetic [PK] of both drugs was determined for the 2 sequences at cycle 1 and cycle 2, when patients received the drugs in the reverse order of administration. Alternating sequence was discontinued at observation of dose limiting toxicity [DLT]: observation of grade 4 hematological toxicity for more than 3 days at the entry level. Both drugs were administered on day 1, with a 1 h interval between the 2 drugs (ET-743, 3-hr infusion i.v. and Doxo, 1-hr infusion i.v push with steroids & 5-HT3 antagonists as antiemetic prophylaxis). Oral steroids premedication for ET-743 was given 24 h before and for 48 h following the day of treatment. Doxo was administered at the fixed dose of 60 mg/m^2, while ET-743 was started at 600 μg/m^2 and escalated thereafter in subsequent cohorts of at least 3 new cases. Patients continued treatment until progressive disease (PD) or intolerance, and were restaged every 2 cycles for activity.

[2] = Phase I clinical trial (Example 2): safety profile and DLT of ET-743 days 1 and 8 with doxorubicin day 1; settings: fixed Doxo dose day 1 with ET-743 700 μg/m^2 days 1 and 8, every 21 days
[3] = test system: untreated metastatic soft tissue sarcomas (STS) and advanced pre-treated anthracyline-naïve breast cancer (ABC); assay: Phase I clinical trial (Example 1): antitumor activity of ET-743 in combination with doxorubicin; assay type: in vivo, human
Method: In this multicenter dose and LTS finding trial, patients were assigned consecutively to start either with sequence A (ET-743 before Doxo) or with the reverse sequence (B) at the following dose levels every 21 days: […] Oral steroids premedication for ET-743 was given 24 h before and for 48 h following the day of treatment. […] Patients continued treatment until progressive disease (PD) or intolerance, and were […] 2 cycles for activity. In this study, 22 patients were enrolled and evaluable. The patients were required to have normal liver, renal, cardiac and haematologic functions and good performance status for entry into the study. Enrolment was restricted to breast cancer and soft tissue sarcoma.

[4] = human, in vivo
[5] = test system: human tumor xenografts, including melanoma and ovarian and breast carcinoma; settings: ET-743 alone; human tumor xenografts grown in athymic mice; cited from earlier work
[6] = test system: sarcoma and breast and ovarian carcinoma; settings: ET-743 alone; phase I intravenous infusion schedules; cited from earlier work
[7] = ET-743 with doxorubicin; tests on animal models; WO 0236135; cited from earlier work
[8] = test system: sarcoma cell line; settings: ET-743 and doxorubicin, Meco et al. 2003; cited from earlier work
[9] = test system: transplanted human sarcomas; settings: ET-743 and doxorubicin; mice with transplanted human sarcomas; Meco et al. 2003; cited from earlier work

## COc1cccc2c1C(=O)c1c(O)c3c(c(O)c1C2=O)C[C@@](O)(C(=O)CO)C[C@@H]3O[C@H]1C[C@H](N)[C@H](O)[C@H](C)O1 [doxorubicin]
[1]
  influence of order of administration on pharmacokinetics: did not influence the pharmacokinetics
  comparison of the plasma disposition in patients receiving both sequences: did not reveal any significant pharmacokinetic interaction
[2]
  MTD, Doxo part: 50 mg/m^2

## COc1cc2c(cc1O)CCN[C@]21CS[C@@H]2c3c(OC(C)=O)c(C)c4c(c3[C@H](COC1=O)N1[C@@H]2[C@H]2c3c(cc(C)c(OC)c3O)C[C@@H]([C@@H]1O)N2C)OCO4 [ET-743, ecteinascidin 743]
[3]; 600-700 μg/m^2 of ET-743 in combination with Doxo
  antitumor activity: Antitumor activity was observed
[3]; all ET-743 dose levels + Doxo 60 mg/m^2, 22 evaluable patients
  patients with confirmed partial response (PR): 5 pts
[3]; combination of ET-743 and doxorubicin, phase I clinical trials
  antitumor activity of the combination: evidence of antitumor activity
[1]
  influence of order of administration on pharmacokinetics: did not influence the pharmacokinetics
  comparison of the plasma disposition in patients receiving both sequences: did not reveal any significant pharmacokinetic interaction
[4]
  tolerability of the combination: tolerable and feasible
[5]
  antineoplastic activity: potent antineoplastic activity
[6]
  responses in patients: Promising responses
[7]
  effect of the combination: synergistic effect
[8]
  effect of the combination: additive effect
[9]
  effect of the combination: additive effect
